Assay results as given in article PMC12865225 (Clinical and Translational Science, 2026).
Like-named read-outs stand apart in the source and are kept apart here. Marks after values point to notes of the source that are not given here.

Assays:
OATP1B1 = biological target: T1, OATP1B1 (Homo sapiens, UniProt Q9Y6L6); assay: Irreversible inhibition (reversibility) assay of OATP1B1; format: cell-based; conditions: for reversibility of OATP1B1 inhibition: wash-out after 15 min preincubation
T1 construct: expressed in transfected cells; host or cells: HEK293 (recombinant baculovirus-mediated transduction)
T1 sequence (Q9Y6L6 1-691): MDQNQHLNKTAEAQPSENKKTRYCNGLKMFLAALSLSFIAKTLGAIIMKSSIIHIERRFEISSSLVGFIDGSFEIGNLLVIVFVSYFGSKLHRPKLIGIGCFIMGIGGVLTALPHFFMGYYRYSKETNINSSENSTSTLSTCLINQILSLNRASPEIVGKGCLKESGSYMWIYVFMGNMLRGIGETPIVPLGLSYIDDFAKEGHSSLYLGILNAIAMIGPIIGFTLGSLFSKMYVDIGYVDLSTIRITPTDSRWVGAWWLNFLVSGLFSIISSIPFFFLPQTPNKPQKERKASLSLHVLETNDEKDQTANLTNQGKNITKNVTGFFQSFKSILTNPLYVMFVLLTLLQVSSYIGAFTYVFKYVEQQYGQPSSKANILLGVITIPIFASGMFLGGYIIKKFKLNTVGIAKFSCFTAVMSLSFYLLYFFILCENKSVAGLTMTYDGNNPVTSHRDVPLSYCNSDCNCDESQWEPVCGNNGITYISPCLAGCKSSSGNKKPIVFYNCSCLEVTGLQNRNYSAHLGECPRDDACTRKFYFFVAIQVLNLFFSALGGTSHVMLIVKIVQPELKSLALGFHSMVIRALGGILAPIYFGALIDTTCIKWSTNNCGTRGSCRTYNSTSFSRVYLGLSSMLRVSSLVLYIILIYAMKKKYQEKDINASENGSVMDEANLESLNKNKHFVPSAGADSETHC
Protocol: were removed and 300 µl of warm TP-buffer was added to each well and incubated for 5 min.
The washing was repeated twice , after which the transport assays were conducted in the presence of 1 µM 2′,7′ -dichlorofluorescein for 5 min. The wells that were pre -incubated with […]
incubated with the vehicle contained three different inhibitor concentrations. After the transport

OAT3 = biological target: T2, OAT3 (Homo sapiens, UniProt Q8TCC7); assay: OAT3 inhibition, fluorescein uptake into HEK293 cells; format: cell-based; design: expressed in transfected cells; host or cells: HEK293 (recombinant baculovirus-mediated transduction); conditions: R = I max,u/IC50, FDA cut-off ≥ 0.1
T2 sequence (Q8TCC7 1-542): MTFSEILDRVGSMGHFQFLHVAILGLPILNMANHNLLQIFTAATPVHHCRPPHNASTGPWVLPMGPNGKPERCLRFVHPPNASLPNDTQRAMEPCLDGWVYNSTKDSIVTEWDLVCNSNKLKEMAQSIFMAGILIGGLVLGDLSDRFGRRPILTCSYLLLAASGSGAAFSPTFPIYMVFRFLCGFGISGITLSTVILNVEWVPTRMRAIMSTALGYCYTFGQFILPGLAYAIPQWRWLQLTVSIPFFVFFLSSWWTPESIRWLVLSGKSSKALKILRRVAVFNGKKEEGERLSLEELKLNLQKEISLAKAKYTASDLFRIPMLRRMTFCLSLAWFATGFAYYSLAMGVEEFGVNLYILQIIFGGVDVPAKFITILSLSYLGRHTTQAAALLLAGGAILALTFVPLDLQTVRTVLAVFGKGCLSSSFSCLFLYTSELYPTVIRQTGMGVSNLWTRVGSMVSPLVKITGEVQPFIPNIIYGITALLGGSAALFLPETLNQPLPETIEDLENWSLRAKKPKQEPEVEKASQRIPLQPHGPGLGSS
Protocol: The human transporters OATP1B1, OATP1B3, OATP2B1, and OAT1‐OAT4 and a negative control protein (enhanced yellow fluorescent protein, eYFP) were transiently expressed in human embryonic kidney 293 (HEK293) cells by recombinant baculovirus‐mediated transduction. Baculoviruses carrying human genes for the transporters were prepared as reported previously. HEK293 cells were cultured in DMEM containing 10% fetal bovine serum at 37°C and 5% CO2 and passaged two to three times per week. For the transport studies, 0.05 × 10^6 cells for 48‐well plates (OATPs) or 0.06 × 10^6 cells for 24‐well plates (OATs) were seeded onto cell‐culture treated well plates coated with poly‐D‐lysine. […]
In the OATP inhibition assays, inhibitors in warm TP‐buffer were directly applied to cells after media removal, followed by a 30‐min preincubation step in the presence of inhibitors. […] OAT1 and OAT3 cells were lysed with 200 μL of 1 M sodium hydroxide for 10 min, and 150 μL of these samples were transferred to a black well plate for fluorescein quantification. […]
For the inhibition data analysis, the average of measured concentrations in the control cells was subtracted from the average of measured concentrations in transporter‐expressing cells for each inhibitor concentration and then normalized to the vehicle sample that represents 100% transport activity. […]

[1] = 1 µM 2′,7′-dichlorofluorescein, 5 min, read-out: IC50 OATP1B1, inhibitor present only during the transport assay
[2] = cells washed three times before the transport assay, read-out: IC50 OATP1B1, inhibitor present only during the preincubation

IC50 (OATP1B1; [1]) [µM]	IC50 (OATP1B1; [2]) [µM]	reversibility of OATP1B1 inhibition (OATP1B1)	Calculated R-value OAT3 (OAT3)	Compound
4.82	238	reversible	0.07 ^c	Cc1onc(-c2c(Cl)cccc2Cl)c1C(=O)N[C@@H]1C(=O)N2[C@@H]1SC(C)(C)[C@@H]2C(=O)O [Dicloxacillin]
15.6	455	reversible	0.1 ^c	Cc1onc(-c2c(F)cccc2Cl)c1C(=O)N[C@@H]1C(=O)N2[C@@H]1SC(C)(C)[C@@H]2C(=O)O [Flucloxacillin]
